Test results as given in patent US9512075B2 (OKAYAMA UNIVERSITY, priority 2012, dated 2016).
In brackets after ≈: the same amount, converted by molar mass. Read-outs that look alike come from different tables or passages of the source.

Tests used:
Assay type in all cases: cell-based
[1] = system: Staphylococcus aureus MRSA No. 17 (methicillin-resistant Staphylococcus aureus: MRSA); assay: MIC for Staphylococcus aureus MRSA No. 17; conditions: MRSA No. 17, regular bouillon medium, 37° C. overnight, turbidity, read-out: MIC Straphyrococcus aureus MRSA No. 17 (MRSA)
[2] = system: Enterococcus faecalis 5038 strain; assay: MIC for Enterococcus faecalis 5038 strain; conditions: 5038 strain, Heart Infusion Broth medium, 37° C. overnight, turbidity, read-out: MIC Enterococcus faecalis 5038
[3] = system: Escherichia coli BE1121 strain; assay: MIC for Escherichia coli BE1121 strain; conditions: Escherichia coli, BE1121STRAIN, read-out: MIC Escherichia coli BE1121
[4] = system: Clostridium perfringens PB6K strain; assay: microbe, parasite or virus in culture; conditions: CD medium, 37° C. overnight, 10% CO2-containing anaerobic conditions; for MIC: Clostridium perfringens, PB6KSTRAIN, read-out: MIC Clostridium perfringens PB6K, PB6K strain
[5] = system: Staphylococcus aureus Smith strain; assay: MIC for Staphylococcus aureus Smith strain; conditions: Smith strain, regular bouillon medium, 37° C. overnight, turbidity, read-out: MIC Straphyrococcus aureus Smith
[6] = system: Clostridium difficile JCM1296 strain; assay: microbe, parasite or virus in culture; conditions: for MIC: Clostridioides difficile, JCM1296, read-out: MIC Clostridium difficile JCM1296
[7] = system: Staphylococcus aureus 209P strain; assay: MIC for Staphylococcus aureus 209P strain; conditions: Staphylococcus aureus, read-out: MIC Straphyrococcus aureus 209P
[8] = system: Enterococcus faecalis NCTC12201 strain (vancomycin-resistant Enterococcus: VRE); assay: MIC for Enterococcus faecalis NCTC12201 strain (VRE); conditions: NCTC12201 strain (VRE), Heart Infusion Broth medium, 37° C. overnight, turbidity, read-out: MIC Enterococcus faecalis NCTC 12201 (VRE)
[9] = system: Escherichia coli K-12 strain; assay: MIC for Escherichia coli K-12 strain; conditions: Escherichia coli, K12STRAIN, read-out: MIC Escherichia coli K12
[10] = BE1121 strain, regular bouillon medium, 37° C. overnight, turbidity
[11] = 209P strain, regular bouillon medium, 37° C. overnight, turbidity
[12] = K-12 strain, regular bouillon medium, 37° C. overnight, turbidity

SMILES | MIC [1] [µg/mL] | MIC [2] [µg/mL] | MIC [3, 10] [µg/mL] | MIC [4] [µg/mL] | MIC [5] [µg/mL] | MIC [6] [µg/mL] | MIC [7, 11] [µg/mL] | MIC [8] [µg/mL] | MIC [9, 12] [µg/mL] | MIC Clostridium perfringens PB6K ([4]; PB6K strain) [µg/mL] | MIC Clostridium difficile JCM1296 [6] [µg/mL] | MIC [3] [µg/mL] | MIC ([7]; 209P) [µg/mL] | MIC [9] [µg/mL]
CCCCCCCCCC(O)=C1C(=O)N(C(=O)OC(C)(C)C)c2cc(Cl)ccc21 [A003, N-Boc-3-decanoyl-6-chloro-2-oxyindole] | 256 (≈ 607 µM) | 128 (≈ 303 µM) | 128 (≈ 303 µM) | 1 (≈ 2.37 µM) | 256 (≈ 607 µM) | 0.5 (≈ 1.18 µM) | 256 (≈ 607 µM) | 128 (≈ 303 µM) | 256 (≈ 607 µM) |  |  |  |  | 
CCCCCCCCCCOCC(=O)c1c(O)c2cc(C)ccc2oc1=O [B029, 3-decyloxyacetyl-6-methyl-4-hydroxycoumarin] | 256 (≈ 684 µM) | 8 (≈ 21.4 µM) | 256 (≈ 684 µM) | < 0.125 | 4 (≈ 10.7 µM) | < 0.125 | 256 (≈ 684 µM) | 2 (≈ 5.34 µM) | 256 (≈ 684 µM) |  |  |  |  | 
O=C(NCC(=O)c1c(O)c2ccccc2oc1=O)c1ccccc1 [B013, 3-benzoylaminoacetyl-4-hydroxycoumarin] | 256 (≈ 792 µM) | 256 (≈ 792 µM) | 256 (≈ 792 µM) | 128 (≈ 396 µM) | 256 (≈ 792 µM) | 128 (≈ 396 µM) | 256 (≈ 792 µM) | 256 (≈ 792 µM) | 256 (≈ 792 µM) |  |  |  |  | 
CCCCCCCCCC(O)=C1C(=O)N(C(=O)Nc2ccc(OC(F)(F)F)cc2)c2ccccc21 [A053, N-(4-(trifluoromethoxy)phenylaminocarbonyl)-3-decanoyl-2-oxyindole] | 256 (≈ 522 µM) | 128 (≈ 261 µM) | 128 (≈ 261 µM) | 32 (≈ 65.2 µM) | 256 (≈ 522 µM) | 16 (≈ 32.6 µM) | 256 (≈ 522 µM) | 128 (≈ 261 µM) | 128 (≈ 261 µM) |  |  |  |  | 
CCCCC1CCC(C(O)=C2C(=O)N(C(=O)OC(C)(C)C)c3ccccc32)CC1 (stereo not drawn) [A008, N-Boc-3-(4-butylcyclohexylcarbonyl)-2-oxyindole] | 256 (≈ 641 µM) | 128 (≈ 320 µM) | 128 (≈ 320 µM) | 2 (≈ 5.01 µM) | 128 (≈ 320 µM) | 1 (≈ 2.5 µM) | 64 (≈ 160 µM) | 128 (≈ 320 µM) | 128 (≈ 320 µM) |  |  |  |  | 
CCCCCCCCCCOCC(O)=C1C(=O)N(C(=O)OC(C)(C)C)c2cc(Cl)ccc21 [A012, N-Boc-3-decyloxyacetyl-6-chloro-2-oxyindole] | 256 (≈ 549 µM) | 256 (≈ 549 µM) | 256 (≈ 549 µM) |  | 256 (≈ 549 µM) |  | 256 (≈ 549 µM) | 256 (≈ 549 µM) | 256 (≈ 549 µM) | 32 (≈ 68.7 µM) | 32 (≈ 68.7 µM) |  |  | 
CC(=O)N1C(=O)C(=C(O)CCCCCCCCCBr)c2ccccc21 [A024, N-acetyl-3-(10-bromodecanoyl)-2-oxyindole] | 16 (≈ 39.2 µM) | 0.5 (≈ 1.22 µM) |  | 0.5 (≈ 1.22 µM) | 4 (≈ 9.8 µM) | 0.5 (≈ 1.22 µM) |  | 1 (≈ 2.45 µM) |  |  |  | 16 (≈ 39.2 µM) | 16 (≈ 39.2 µM) | 128 (≈ 313 µM)
CCCCC1CCC(C(O)=C2C(=O)N(C(=O)OC(C)(C)C)c3ccc(F)cc32)CC1 (stereo not drawn) [A027, N-Boc-3-(4-butylcyclohexylcarbonyl)-5-fluoro-2-oxyindole] | 128 (≈ 307 µM) | 8 (≈ 19.2 µM) | 128 (≈ 307 µM) | 2 (≈ 4.79 µM) | 16 (≈ 38.3 µM) | 1 (≈ 2.4 µM) | 128 (≈ 307 µM) | 8 (≈ 19.2 µM) | 128 (≈ 307 µM) |  |  |  |  | 
